Test results from PMC2824606 (Molecular cell, 2010).

Biological target: yHsp90 (yeast Hsp90, Hsp82) (Saccharomyces cerevisiae, UniProt P02829)
Assay: Kd determination
Format: binding

Chain of yHsp90 (yeast Hsp90, Hsp82) (P02829 whole entry): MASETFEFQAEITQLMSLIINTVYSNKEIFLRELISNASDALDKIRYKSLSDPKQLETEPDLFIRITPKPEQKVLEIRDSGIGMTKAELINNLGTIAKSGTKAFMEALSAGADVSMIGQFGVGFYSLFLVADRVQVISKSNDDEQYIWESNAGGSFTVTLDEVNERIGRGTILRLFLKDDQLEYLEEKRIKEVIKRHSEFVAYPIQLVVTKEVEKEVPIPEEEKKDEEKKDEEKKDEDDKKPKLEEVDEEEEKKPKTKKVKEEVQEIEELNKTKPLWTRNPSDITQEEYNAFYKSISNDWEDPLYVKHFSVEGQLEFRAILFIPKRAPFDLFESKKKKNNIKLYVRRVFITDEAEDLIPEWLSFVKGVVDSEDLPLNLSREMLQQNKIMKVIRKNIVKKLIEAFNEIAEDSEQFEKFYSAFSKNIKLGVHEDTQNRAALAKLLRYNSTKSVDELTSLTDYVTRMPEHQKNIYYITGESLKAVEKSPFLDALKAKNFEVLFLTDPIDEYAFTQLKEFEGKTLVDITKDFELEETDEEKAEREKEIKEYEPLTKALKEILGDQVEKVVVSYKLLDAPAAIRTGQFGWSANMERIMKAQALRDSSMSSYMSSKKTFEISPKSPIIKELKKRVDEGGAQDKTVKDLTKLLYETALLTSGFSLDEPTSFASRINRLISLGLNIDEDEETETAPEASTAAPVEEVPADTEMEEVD

**Q.** Which Kd does the source give for `Nc1ncnc2c1ncn2[C@@H]1O[C@H](CO[P@](=O)(O)O[P@](=O)(O)NP(=O)(O)O)[C@@H](O)[C@H]1O` [AMPPNP] here?
**A.** Kd of each protein for AMPPNP is shown in inset.
